Values joined by “and” are separate entries in the source; they are usually repeats but may differ in a detail not shown here. Equal entries are not always repeated. Toxic doses and inconclusive results are not listed.
Test system: L1210 leukemia ip in BDF1 mice, survival T/C
Assay: NCI In Vivo Anticancer Drug Screen. Data for tumor model L1210 Leukemia (intraperitoneal) in B6D2F1 (BDF1) mice
Conditions: endpoint: mean survival time, higher = longer survival
How it was run: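 Transplanted-tumor mice were given test agent; controls received vehicle only. Survival readings from the two groups were divided (treated over control).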

[1] = dose: 100.0 mg/kg/injection, schedule: Q01DX009 (ip), vehicle: Klucel (hydroxypropylcellulose) (HPC)
[2] = dose: 100.0 mg/kg/injection, schedule: Q01DX009 (ip), vehicle: saline with Tween-80
[3] = dose: 100.0 mg/kg/injection, schedule: Q04DX003 (ip), vehicle: Klucel (hydroxypropylcellulose) (HPC)
[4] = dose: 100.0 mg/kg/injection, schedule: Q04DX003 (ip), vehicle: saline
[5] = dose: 200.0 mg/kg/injection, schedule: Q01DX009 (ip), vehicle: saline with Tween-80
[6] = dose: 200.0 mg/kg/injection, schedule: Q04DX003 (ip), vehicle: Klucel (hydroxypropylcellulose) (HPC)
[7] = dose: 200.0 mg/kg/injection, schedule: Q04DX003 (ip), vehicle: saline
[8] = dose: 400.0 mg/kg/injection, schedule: Q04DX003 (ip), vehicle: saline
[9] = dose: 50.0 mg/kg/injection, schedule: Q04DX003 (ip), vehicle: saline
[10] = dose: 75.0 mg/kg/injection, schedule: Q04DX002 (ip), vehicle: Klucel (hydroxypropylcellulose) (HPC)
[11] = dose: 150.0 mg/kg/injection, schedule: Q04DX002 (ip), vehicle: Klucel (hydroxypropylcellulose) (HPC)
[12] = dose: 300.0 mg/kg/injection, schedule: Q04DX002 (ip), vehicle: Klucel (hydroxypropylcellulose) (HPC)
[13] = dose: 100.0 mg/kg/injection, schedule: Q04DX002 (ip), vehicle: Klucel (hydroxypropylcellulose) (HPC)
[14] = dose: 100.0 mg/kg/injection, schedule: Q01DX001 (ip), vehicle: saline
[15] = dose: 200.0 mg/kg/injection, schedule: Q01DX001 (ip), vehicle: saline
[16] = dose: 400.0 mg/kg/injection, schedule: Q01DX001 (ip), vehicle: saline
[17] = dose: 400.0 mg/kg/injection, schedule: Q04DX003 (ip), vehicle: Klucel (hydroxypropylcellulose) (HPC)

## COc1cc(NS(C)(=O)=O)ccc1Nc1c2ccc([N+](=O)[O-])cc2nc2c(C)c(C)ccc12
dose: 0.48 mg/kg/injection, schedule: Q01DX009 (ip), vehicle: saline
  T/C: 113 % of control
dose: 2.7 mg/kg/injection, schedule: Q01DX009 (ip), vehicle: saline
  T/C: 151 % of control
dose: 4.1 mg/kg/injection, schedule: Q01DX009 (ip), vehicle: saline
  T/C: 169 % of control
dose: 6.25 mg/kg/injection, schedule: Q01DX009 (ip), vehicle: water
  T/C: 106 % of control
dose: 12.5 mg/kg/injection, schedule: Q01DX009 (ip), vehicle: saline
  T/C: 157 % of control
dose: 12.5 mg/kg/injection, schedule: Q01DX009 (ip), vehicle: water
  T/C: 116 % of control
dose: 22.0 mg/kg/injection, schedule: Q04DX003 (ip), vehicle: saline
  T/C: 114 % of control
dose: 25.0 mg/kg/injection, schedule: Q01DX001 (ip), vehicle: water
  T/C: 122 % of control
dose: 25.0 mg/kg/injection, schedule: Q01DX009 (ip), vehicle: saline
  T/C: 102 % of control
dose: 25.0 mg/kg/injection, schedule: Q01DX009 (ip), vehicle: water
  T/C: 124 % of control
dose: 25.0 mg/kg/injection, schedule: Q01DX009 (sc), vehicle: saline
  T/C: 106 % of control
dose: 35.0 mg/kg/injection, schedule: Q04DX003 (ip), vehicle: saline
  T/C: 120 % of control
dose: 50.0 mg/kg/injection, schedule: Q01DX009 (sc), vehicle: saline
  T/C: 123 % of control
dose: 100.0 mg/kg/injection, schedule: Q01DX009 (sc), vehicle: saline
  T/C: 115 % of control
dose: 200.0 mg/kg/injection, schedule: Q01DX009 (sc), vehicle: saline
  T/C: 124 % of control
dose: 400.0 mg/kg/injection, schedule: Q01DX009 (ip), vehicle: water
  T/C: 150 % of control

## CCc1cc(C)cc(OC(=O)Nc2cc(Cl)ccc2C)c1
[1]
  T/C: 95 % of control
dose: 200.0 mg/kg/injection, schedule: Q01DX009 (ip), vehicle: Klucel (hydroxypropylcellulose) (HPC)
  T/C: 90 % of control
dose: 400.0 mg/kg/injection, schedule: Q01DX009 (ip), vehicle: Klucel (hydroxypropylcellulose) (HPC)
  T/C: 100 % of control

## O=C(O)CSC(=S)c1ccccc1
dose: 25.0 mg/kg/injection, schedule: Q04DX002 (ip), vehicle: saline with Tween-80
  T/C: 103 % of control
dose: 50.0 mg/kg/injection, schedule: Q04DX002 (ip), vehicle: saline with Tween-80
  T/C: 103 % of control
dose: 50.0 mg/kg/injection, schedule: Q04DX003 (ip), vehicle: Klucel (hydroxypropylcellulose) (HPC)
  T/C: 108 % of control
[2]
  T/C: 93 % of control
dose: 100.0 mg/kg/injection, schedule: Q04DX002 (ip), vehicle: saline with Tween-80
  T/C: 118 % of control
[3]
  T/C: 97 % of control
[4]
  T/C: 97 % of control
[5]
  T/C: 93 % of control
[6]
  T/C: 105 % of control
[7]
  T/C: 100 % of control
[8]
  T/C: 97 % of control

## C=CC(OC)OC
dose: 25.0 mg/kg/injection, schedule: Q04DX003 (ip), vehicle: saline
  T/C: 95 % of control
[9]
  T/C: 93 % of control

## O=S(Cc1ccccc1)c1ccccc1 (centres undefined)
[10]
  T/C: 115 % of control
[11]
  T/C: 100 % of control
[12]
  T/C: 93 % of control

## COc1cc(NCCCNc2c3ccc(Cl)cc3nc3ccc(OC)cc23)c2ncccc2c1
[1]
  T/C: 100 % of control

## CCNC(=O)Oc1ccc(S(=O)(=O)F)cc1Cl
dose: 25.0 mg/kg/injection, schedule: Q01DX001 (ip), vehicle: carboxymethylcellulose (CMC)
  T/C: 91 % of control
dose: 50.0 mg/kg/injection, schedule: Q01DX001 (ip), vehicle: carboxymethylcellulose (CMC)
  T/C: 107 % of control
dose: 100.0 mg/kg/injection, schedule: Q01DX001 (ip), vehicle: carboxymethylcellulose (CMC)
  T/C: 98 % of control and 100 % of control

## Cc1ccc2cc(N(C)C)ccc2[n+]1C
dose: 3.13 mg/kg/injection, schedule: Q04DX003 (ip), vehicle: saline
  T/C: 101 % of control
dose: 6.25 mg/kg/injection, schedule: Q04DX003 (ip), vehicle: saline
  T/C: 106 % of control
dose: 12.5 mg/kg/injection, schedule: Q04DX003 (ip), vehicle: saline
  T/C: 96 % of control and 109 % of control

## NCC12CC3CC(CC(C3)C1)C2
dose: 25.0 mg/kg/injection, schedule: Q01DX009 (ip), vehicle: Klucel (hydroxypropylcellulose) (HPC)
  T/C: 107 % of control
dose: 25.0 mg/kg/injection, schedule: Q04DX002 (ip), vehicle: Klucel (hydroxypropylcellulose) (HPC)
  T/C: 111 % of control
dose: 50.0 mg/kg/injection, schedule: Q01DX009 (ip), vehicle: Klucel (hydroxypropylcellulose) (HPC)
  T/C: 93 % of control
dose: 50.0 mg/kg/injection, schedule: Q04DX002 (ip), vehicle: Klucel (hydroxypropylcellulose) (HPC)
  T/C: 107 % of control
[1]
  T/C: 90 % of control
[13]
  T/C: 96 % of control and 104 % of control

## COc1ccccc1CN1CCCN(Cc2ccccc2OC)C1c1ccccc1O
dose: 50.0 mg/kg/injection, schedule: Q01DX001 (ip), vehicle: saline
  T/C: 101 % of control
[14]
  T/C: 103 % of control
[15]
  T/C: 101 % of control
[16]
  T/C: 97 % of control

## CCOC(=O)C1=C(C)NC(C)=C(C(=O)OCC)C1c1ccccc1Cl
[4]
  T/C: 97 % of control
[7]
  T/C: 117 % of control
[8]
  T/C: 87 % of control

## CC(=O)Oc1cn(C)c2c1C(=O)CC(C)(C)C2
[10]
  T/C: 94 % of control
[11]
  T/C: 105 % of control
[12]
  T/C: 97 % of control

## NC(C(=O)O)c1cccc(Cl)c1 (centres undefined)
dose: 100.0 mg/kg/injection, schedule: Q01DX001 (ip), vehicle: Klucel (hydroxypropylcellulose) (HPC)
  T/C: 123 % of control
[3]
  T/C: 100 % of control
dose: 200.0 mg/kg/injection, schedule: Q01DX001 (ip), vehicle: Klucel (hydroxypropylcellulose) (HPC)
  T/C: 109 % of control
[6]
  T/C: 91 % of control
dose: 400.0 mg/kg/injection, schedule: Q01DX001 (ip), vehicle: Klucel (hydroxypropylcellulose) (HPC)
  T/C: 105 % of control
[17]
  T/C: 100 % of control

## CN(N)C(=S)c1ccc(Cl)cc1
[9]
  T/C: 102 % of control
[14]
  T/C: 95 % of control
[4]
  T/C: 100 % of control
[15]
  T/C: 93 % of control
[7]
  T/C: 96 % of control

## CN(C)CCC(=O)O
dose: 100.0 mg/kg/injection, schedule: Q01DX009 (ip), vehicle: saline
  T/C: 92 % of control
dose: 100.0 mg/kg/injection, schedule: Q04DX003 (ip), vehicle: saline sonified
  T/C: 108 % of control
dose: 200.0 mg/kg/injection, schedule: Q01DX009 (ip), vehicle: saline
  T/C: 97 % of control
dose: 200.0 mg/kg/injection, schedule: Q04DX003 (ip), vehicle: saline sonified
  T/C: 105 % of control
dose: 400.0 mg/kg/injection, schedule: Q01DX009 (ip), vehicle: saline
  T/C: 94 % of control
dose: 400.0 mg/kg/injection, schedule: Q04DX003 (ip), vehicle: saline sonified
  T/C: 95 % of control

## O=C(COc1ccc(Cl)cc1)Oc1c(Cl)c(Cl)c(Cl)c(Cl)c1Cl
[13]
  T/C: 97 % of control
dose: 200.0 mg/kg/injection, schedule: Q04DX002 (ip), vehicle: Klucel (hydroxypropylcellulose) (HPC)
  T/C: 115 % of control
dose: 400.0 mg/kg/injection, schedule: Q04DX002 (ip), vehicle: Klucel (hydroxypropylcellulose) (HPC)
  T/C: 104 % of control

## O=Cc1[nH]c(=S)[nH]c(=O)c1Cc1ccccc1Cl
[3]
  T/C: 101 % of control
[6]
  T/C: 98 % of control
[17]
  T/C: 97 % of control

## N#CCCCCCCCCC(=O)c1ccc(O)cc1O
dose: 87.5 mg/kg/injection, schedule: Q01DX009 (ip), vehicle: Klucel (hydroxypropylcellulose) (HPC)
  T/C: 96 % of control
dose: 175.0 mg/kg/injection, schedule: Q01DX009 (ip), vehicle: Klucel (hydroxypropylcellulose) (HPC)
  T/C: 100 % of control
dose: 350.0 mg/kg/injection, schedule: Q01DX009 (ip), vehicle: Klucel (hydroxypropylcellulose) (HPC)
  T/C: 102 % of control

## O=C(O)C1=C(C(=O)Nc2cccc3cccnc23)C2C=CC1O2 (centres undefined)
[14]
  T/C: 96 % of control
[15]
  T/C: 97 % of control
[16]
  T/C: 95 % of control

## COc1ccc(C(=O)O)c(CC#N)c1
[3]
  T/C: 97 % of control
[6]
  T/C: 87 % of control

## Nc1ccc(S(=O)(=O)c2ccc(NCC(=O)O)cc2)cc1
dose: 50.0 mg/kg/injection, schedule: Q01DX009 (ip), vehicle: saline with Tween-80
  T/C: 105 % of control
[2]
  T/C: 101 % of control
dose: 100.0 mg/kg/injection, schedule: Q04DX003 (ip), vehicle: saline with Tween-80
  T/C: 89 % of control
[5]
  T/C: 92 % of control
dose: 200.0 mg/kg/injection, schedule: Q04DX003 (ip), vehicle: saline with Tween-80
  T/C: 92 % of control
